Data: the supplement of paper PMC10307832

Tests used:
Experiment in all cases: relative viability (nuclei count vs DMSO), 5 days (fraction); higher = more cells survive
Alpelisib + Bortezomib = compound: Cc1nc(NC(=O)N2CCC[C@H]2C(N)=O)sc1-c1ccnc(C(C)(C)C(F)(F)F)c1 [Alpelisib] + CC(C)C[C@H](NC(=O)[C@H](Cc1ccccc1)NC(=O)c1cnccn1)B(O)O [Bortezomib] (partner 0.002 µM)
Procedure, shortened: (§1)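 Medians of duplicate plates are given as relative viability. That measure is the nuclei count in treated wells divided by the count in vehicle wells. Counts were taken on 4× images of lung cancer cell lines in 1536-well plates, 5 days after pin-tool dosing the day after seeding with one drug alone or a fixed anchor-drug dose plus five library-drug doses (not always all listed) in √10 steps.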

Alpelisib + Decitabine = compound: Cc1nc(NC(=O)N2CCC[C@H]2C(N)=O)sc1-c1ccnc(C(C)(C)C(F)(F)F)c1 [Alpelisib] + Nc1ncn([C@H]2C[C@H](O)[C@@H](CO)O2)c(=O)n1 [Decitabine] (partner 2 µM)
Procedure, shortened: as §1

Vemurafenib + Crizotinib = compound: CCCS(=O)(=O)Nc1ccc(F)c(C(=O)c2c[nH]c3ncc(-c4ccc(Cl)cc4)cc23)c1F [Vemurafenib] + C[C@@H](Oc1cc(-c2cnn(C3CCNCC3)c2)cnc1N)c1c(Cl)ccc(F)c1Cl [Crizotinib] (partner 1 µM)
Procedure, shortened: as §1

Vemurafenib + Alpelisib = compound: CCCS(=O)(=O)Nc1ccc(F)c(C(=O)c2c[nH]c3ncc(-c4ccc(Cl)cc4)cc23)c1F [Vemurafenib] + Cc1nc(NC(=O)N2CCC[C@H]2C(N)=O)sc1-c1ccnc(C(C)(C)C(F)(F)F)c1 [Alpelisib] (partner 2 µM)
Procedure, shortened: as §1

Cell Line UMC-11 has a relative viability (Alpelisib + Bortezomib; first compound 0.04 µM) of 0.677, a relative viability (Alpelisib + Bortezomib; first compound 0.1265 µM) of 0.981 and a relative viability (Alpelisib + Bortezomib; first compound 0.4 µM) of 0.672. The relative viability (Alpelisib + Bortezomib; first compound 1.265 µM) was 0.734, the relative viability (Alpelisib + Bortezomib; first compound 4 µM) was 0.465 and the relative viability (Alpelisib + Decitabine; first compound 0.04 µM) was 0.513. It also gave a relative viability (Alpelisib + Decitabine; first compound 0.1265 µM) of 0.636, a relative viability (Alpelisib + Decitabine; first compound 0.4 µM) of 0.693 and a relative viability (Alpelisib + Decitabine; first compound 1.265 µM) of 0.535. The relative viability (Alpelisib + Decitabine; first compound 4 µM) was 0.745, the relative viability (Vemurafenib + Crizotinib; first compound 0.03162 µM) was 0.638 and the relative viability (Vemurafenib + Crizotinib; first compound 0.1 µM) was 0.616. For the same cell line, the relative viability (Vemurafenib + Crizotinib; first compound 0.3162 µM) was 0.629, the relative viability (Vemurafenib + Crizotinib; first compound 1 µM) was 0.633 and the relative viability (Vemurafenib + Alpelisib; first compound 0.03162 µM) was 0.954. It also gave a relative viability (Vemurafenib + Alpelisib; first compound 0.1 µM) of 0.947, a relative viability (Vemurafenib + Alpelisib; first compound 0.3162 µM) of 1.09 and a relative viability (Vemurafenib + Alpelisib; first compound 1 µM) of 0.91.
